6 compounds from patent publication US8685924B2, “Preventives/remedies for stress urinary incontinence and method of screening the same” (Takeda Pharmaceutical Company Limited, priority 2004, dated 2014) can be followed below.

Where “and” joins values, the source holds several entries; their conditions need not be identical. Identical values can stand only once.

For assay [1], the system named is urethane-anesthetized female rats. Kind of assay: Leak point pressure by abdominal wall-electrically stimulating method, serotonin 5-HT receptor agonists (Example 3). The following applies: for leak point pressure after drug administration / leak point pressure increase / leak point pressure before drug administration: i.v., mean ± SEM; for leak point pressure before drug administration: baseline; for effect on leak point pressure: intravenous administration. In kind it is in vivo, rat. As for the experimental part: SD female rats (body weight 180-350 g) were anesthetized with urethane (Wako Pure Chemical Industries, Ltd.), and the spinal cord was transected at T8-9 level to eliminate the reflex voiding. In addition, the nerve to the iliococcygeus muscle/pubococcygeus muscle on the one side was transected. During operation, halothane (Takeda Pharmaceutical Company Limited) anesthesia was added when necessary. A catheter (PE-90, Clay Adams) was inserted into the bladder and secured with a ligature, and the incised part of each of the abdominal muscle and skin was closed with sutures. The abdominal skin near the diaphragm was incised at two left and right positions to newly expose the abdominal muscle. An Evans Blue dye (Merck) solution was injected into the bladder, and the bladder volume was adjusted to 0.2-0.3 ml. The bladder catheter was connected to a pressure transducer, and the signals of the transducer were sent to a computer via an amplifier (blood pressure amplification unit AP-641G; NIHON KOHDEN) and an analog-to-digital converter (BIOPAC; MP100), and recorded on a hard disc. The data were analyzed on a computer using software (BIOPAC; AcqKnowledge). The exposed abdominal muscle was electrostimulated using an electrostimulator (SEN-3301; NIHON KODEN) and an isolator (SS-202J; NIHON KODEN), and the presence or absence of incontinence from the meatus urethra was observed. The electrostimulation was applied at a voltage of 2.5-50 V, duration of 0.5 milisec, and frequency 50 Hz for 1 sec, thereby gradually increasing the intravesical pressure. The peak intravesical pressure during stimulation of the abdominal wall was measured and, of the trials with observed incontinence, the lowest peak intravesical pressure was defined as the leak point pressure. Serotonin 5-HT receptor agonist, WAY-161503 (5-HT2C receptor agonist), WAY-163909 (5-HT2C receptor agonist), DOI (5-HT2A/2B/2C receptor agonist), mCPP (5-HT2B/2C receptor partial agonist), eltoprazine (5-HT1A/1B/2C receptor partial agonist), 8-OH-DPAT (5-HT1A receptor agonist), sumatryptan (5-HT1B/1D receptor agonist) and BW723C86 (5-HT2B receptor agonist) were intravenously administered, and the leak point pressure was compared before and after the administration. DOI, mCPP and eltoprazine were dissolved in saline, and other drugs were dissolved in DMA/PEG400 (1:1), and they were intravenously administered at 1 ml/kg and 0.5 mg/kg, respectively. Depending on the experiment, RS-102221 (serotonin 5-HT2C receptor antagonist) or SB221284 (serotonin 5-HT2B/2C receptor antagonist) was intravenously administered 5 min before WAY-161503 or WAY-163909 administration, and an antagonistic effect against the WAY-161503 or WAY-163909-induced increment of the leak point pressure was examined. RS-102221 and SB221284 were both dissolved in DMA/PEG400 (1:1) and intravenously administered at 0.5 ml/kg.

Assay [2] has the same test system. Kind of assay: Leak point pressure by direct compressing of the bladder (Example 4). In kind it is in vivo, rat. The following applies: for leak point pressure after drug administration / leak point pressure increase / leak point pressure before drug administration: i.v., mean ± SEM; for leak point pressure after drug administration: 20 min later; for leak point pressure before drug administration: baseline; for effect on leak point pressure: intravenous administration. As for the experimental part:
SD female rats (body weight 180-350 g) were anesthetized with urethane (Wako Pure Chemical Industries, Ltd.), and halothane (Takeda Pharmaceutical Company Limited) anesthesia was added when necessary during operation.
The spinal cord was transected at T8-9 level to eliminate the reflex voiding. The lower abdomen was incised in the median line, a catheter for intravesical pressure measurement (PE-90, Clay Adams) was inserted into the bladder and secured with a ligature, and the intravesical pressure was measured via a pressure transducer. Urine was emptized in advance by bilaterally pressing the bladder with two swabs, and a 0.1% Evans blue (Merck) solution (0.4 mL) was injected into the bladder. The bladder was gradually compressed bilaterally with two swabs, and the intravesical pressure upon saline leakage from the urethral orifice was measured and defined as a leak point pressure. The measurement of the leak point pressure was repeated, and the average value of the final five stable measures was taken as the value before drug administration. Thereafter, the drug was intravenously administered, the leak point pressure was measured again 20 min later, and the value after the drug administration was determined. DOI, mCPP and eltoprazine were dissolved in saline, and other drugs were dissolved in DMA/PEG400 (1:1), and intravenously administered at 1 ml/kg and 0.5 mg/kg, respectively. Depending on the experiment, RS-102221 or SB221284 (showing serotonin 5-HT2C receptor antagonist activity) was administered, 5 min later, WAY-161503 or WAY-163909 was administered, leak point pressure was measured 10 min later, and a competitive assay with the action of WAY-161503 or WAY-163909 was performed. RS-102221 and SB221284 were both dissolved in DMA/PEG400 (1:1), and intravenously administered at 0.5 ml/kg.

On to `CCCN(CCC)C1CCc2cccc(O)c2C1` (centres unmarked) [8OH-DPAT], for which, in assay [1] (0.3 mg/kg), the “leak point pressure after drug administration” value is recorded as 47.1 ± 9.4 cmH2O and the “leak point pressure increase” value was −1.5 ± 1.2 cmH2O. For the same compound, the “leak point pressure before drug administration” value in assay [1] (dose group 0.3 mg/kg) came out at 48.5 ± 9.6 cmH2O. For the same compound, the “effect on leak point pressure” value in assay [1] was “showed no effect”.

In the case of `c1cc2c3c(c1)[C@@H]1CCC[C@@H]1N3CCNC2` [WAY-163907], the figures for the “leak point pressure after drug administration” value in assay [1] (3 mg/kg) and in assay [2] (3 mg/kg) were 47.4 ± 4.8 cmH2O and 57.0 ± 5.1 cmH2O, respectively. The “leak point pressure increase” value in assay [1] (3 mg/kg) was −4.8 ± 2.6 cmH2O; in assay [2] (3 mg/kg), 1.9 ± 0.5 cmH2O. For the same compound, the “leak point pressure before drug administration” value in assay [1] (dose group 3 mg/kg) is reported as 52.2 ± 3.4 cmH2O; in assay [2] (dose group 3 mg/kg), 55.1 ± 4.7 cmH2O. For the same compound, the “effect on leak point pressure” value in assay [1] and in assay [2] was “showed no effect” in each case.

With `Clc1cccc(N2CCNCC2)c1` [mCPP], the “leak point pressure after drug administration” value worked out at 49.1 ± 6.4 cmH2O in assay [1] (0.01 mg/kg); 52.3 ± 4.3 cmH2O in assay [1] (0.03 mg/kg); 59.7 ± 6.6 cmH2O in assay [1] (0.1 mg/kg); 67.0 ± 5.3 cmH2O in assay [2] (0.003 mg/kg); 69.3 ± 3.4 cmH2O in assay [2] (0.01 mg/kg); 73.8 ± 7.1 cmH2O in assay [2] (0.03 mg/kg). Besides, the “leak point pressure after drug administration” value in assay [2] (0.1 mg/kg) is on record as 76.7 ± 4.0 cmH2O; in assay [2] (0.3 mg/kg), 71.1 ± 7.1 cmH2O. Moreover, the “leak point pressure increase” value in assay [1] (0.01 mg/kg) is 2.8 ± 2.1 cmH2O; in assay [1] (0.03 mg/kg), 14.6 ± 2.7 cmH2O; in assay [1] (0.1 mg/kg), 13.2 ± 2.8 cmH2O; in assay [2] (0.003 mg/kg), 4.1 ± 2.1 cmH2O; in assay [2] (0.01 mg/kg), 6.3 ± 2.3 cmH2O; in assay [2] (0.03 mg/kg) it was 11.6 ± 3.1 cmH2O. Moreover, the “leak point pressure increase” value in assay [2] (0.1 mg/kg) stood at 13.6 ± 2.5 cmH2O; in assay [2] (0.3 mg/kg), 5.4 ± 2.2 cmH2O. Also, the “leak point pressure before drug administration” value in assay [1] (dose group 0.01 mg/kg) turned out to be 46.3 ± 5.8 cmH2O; in assay [1] (dose group 0.03 mg/kg) it was 37.7 ± 4.0 cmH2O; in assay [1] (dose group 0.1 mg/kg), 46.5 ± 6.1 cmH2O; in assay [2] (dose group 0.003 mg/kg) it was 62.9 ± 5.0 cmH2O; in assay [2] (dose group 0.01 mg/kg), 63.0 ± 2.7 cmH2O; in assay [2] (dose group 0.03 mg/kg), 62.2 ± 4.4 cmH2O. The “leak point pressure before drug administration” value in assay [2] (dose group 0.1 mg/kg) is listed as 63.1 ± 3.9 cmH2O; in assay [2] (dose group 0.3 mg/kg), 65.7 ± 7.8 cmH2O. Besides, the “effect on leak point pressure” value in assay [1] and in assay [2] was “increased the leak point pressure significantly” in each case.

For the compound `c1cc2c(c(N3CCNCC3)c1)OCCO2` [eltoprazine], the “leak point pressure after drug administration” value stood at 55.2 ± 4.5 cmH2O in assay [1] (1 mg/kg), 63.2 ± 5.6 cmH2O in assay [1] (3 mg/kg), 76.7 ± 4.7 cmH2O in assay [2] (1 mg/kg) and 74.6 ± 2.3 cmH2O in assay [2] (3 mg/kg). Moreover, the “leak point pressure increase” value is given as 6.1 ± 1.7 cmH2O in assay [1] (1 mg/kg), 15.8 ± 3.1 cmH2O in assay [1] (3 mg/kg), 8.0 ± 2.8 cmH2O in assay [2] (1 mg/kg) and 13.5 ± 1.0 cmH2O in assay [2] (3 mg/kg). Besides, the “leak point pressure before drug administration” value in assay [1] (dose group 1 mg/kg) was 49.2 ± 5.2 cmH2O; in assay [1] (dose group 3 mg/kg), 47.4 ± 5.5 cmH2O; in assay [2] (dose group 1 mg/kg), 68.6 ± 6.1 cmH2O; in assay [2] (dose group 3 mg/kg), 61.1 ± 2.4 cmH2O. For the same compound, the “effect on leak point pressure” value in assay [1] and in assay [2] was “increased the leak point pressure significantly” each time.

Take `CC(N)Cc1c[nH]c2ccc(OCc3cccs3)cc12` (centres unmarked) [BW723C86]: the “leak point pressure after drug administration” value is listed as 48.9 ± 4.6 cmH2O in assay [1] (3 mg/kg) and 48.6 ± 3.2 cmH2O in assay [1] (10 mg/kg). For the same compound, the figures for the “leak point pressure increase” value in assay [1] (3 mg/kg) and in assay [1] (10 mg/kg) were 2.5 ± 3.5 cmH2O and −0.7 ± 3.9 cmH2O, respectively. Besides, the figures for the “leak point pressure before drug administration” value in assay [1] (dose group 3 mg/kg) and in assay [1] (dose group 10 mg/kg) were 46.4 ± 5.6 cmH2O and 49.3 ± 6.5 cmH2O, respectively. Also, the “effect on leak point pressure” value in assay [1] was “showed no effect”.

With `CNS(=O)(=O)Cc1ccc2[nH]cc(CCN(C)C)c2c1` [sumatryptan], the “leak point pressure after drug administration” value was 42.2 ± 2.0 cmH2O and 44.9 ± 9.1 cmH2O in assay [1] (1 mg/kg); 54.4 ± 7.5 cmH2O in assay [1] (3 mg/kg). Moreover, the “leak point pressure increase” value in assay [1] (3 mg/kg) was found to be 1.5 ± 2.6 cmH2O. The “leak point pressure before drug administration” value in assay [1] (dose group 1 mg/kg) was 44.2 ± 2.6 cmH2O and 43.2 ± 8.3 cmH2O; in assay [1] (dose group 3 mg/kg), 52.9 ± 7.8 cmH2O. Besides, the “effect on leak point pressure” value in assay [1] is reported as “showed no effect”.
